Assay results published in patent US20060093578A1, “Method and composition for treating multiple sclerosis” (Kyorin Pharmaceutical Co., Ltd., priority 2004, published 2006).

Key:
[1] = test system: IL-12 p70 production by microglia; experiment: IL-12 p70 production by LPS + IFNγ-stimulated microglia (ELISA); format: cell-based, C57BL/6J mice; conditions: for IL-12 p70: mean ± SD (n = 9); for IL-12 production by microglia: LPS and IFNγ stimulation, graded doses (FIG. 1, FIG. 9A)
Description: Samples used for the experiments were prepared as described below. […] The cultures were maintained with Dulbecco's modified Eagle's minimum essential medium supplemented with 10% fetal calf serum, 5 μg/ml bovine insulin, and 0.2% glucose.
The supernatant was then collected and stored at −70° C. until assessed. From the remaining cells, total RNA was extracted, following the guanidinium thiocyanate method (RNeasy Mini Kit;QIAGEN). The cDNA encoding mouse TNFα, IL-1β, IL-6, iNOS (inducible nitric oxide synthetase), and IL-12, was generated by reverse transcription-polymerase chain reaction (RT-PCR) using Superscript II (INVITROGEN), and Ampli Taq DNA polymerase (APPLIED BIOSYSTEMS) with the specific primers shown in Table 1.
Cytokine production was measured with an ELISA kit specific for IL1, IL-6, TNFα, and IL-12 p70 (TECHNE Corp. MN). NO production was determined by Griess reaction. Briefly, a 50 μl aliquot of supernatants were mixed with an equal volume of Griess reagent (0.1% N-ethylenediarnine dihydrochloride, 1% sulfanilamide, and 2.5% phosphoric acid) and incubated for 15 minutes at room temperature, and the absorbance was read at 540 nm on a microtiter plate reader. Nitrite concentrations were calculated from a standard curve of NaNO2 (Yoshikawa M, Suzumura A, Tamaru T, et al. “Effects of phosphodiesterase inhibitors on microglia.” Multiple Scler 1999;5: 126-133, the contents of which are hereby incorporated by reference in their entirety).

[2] = test system: peripheral blood mononuclear cells; conditions: with IFNβ, synergistically; PBMC from patients with active MS; clinical trial; cited from earlier work
[3] = microglia + LPS (1 μg/mL) + IFNγ (1 ng/mL) + IFNβ 10^2 U/mL, agent 1 μM
[4] = microglia + LPS (1 μg/mL) + IFNγ (1 ng/mL) + IFNβ 10^2 U/mL, agent 10 μM
[5] = microglia + LPS (1 μg/mL) + IFNγ (1 ng/mL) + IFNβ 10^2 U/mL, agent 100 μM, detection limit 7 pg/mL
[6] = microglia + LPS (1 μg/mL) + IFNγ (1 ng/mL), agent 1 μM, stimulated control 118 ± 13
[7] = microglia + LPS (1 μg/mL) + IFNγ (1 ng/mL), agent 10 μM, stimulated control 118 ± 13
[8] = microglia + LPS (1 μg/mL) + IFNγ (1 ng/mL), agent 100 μM, detection limit 7 pg/mL

Compound | IL-12 p70 [1, 3] | IL-12 p70 [1, 4] | IL-12 p70 [1, 5] | IL-12 p70 [1, 6] | IL-12 p70 [1, 7] | IL-12 p70 [1, 8] | IL-12 production by microglia [1] | anti-inflammatory cytokine IL-10 [2] | production of inflammatory cytokines [2]
CC(C)C(=O)c1c(C(C)C)nn2ccccc12 [Ibudilast, ibudilast] | 48 ± 11 pg/mL | 43 ± 6 pg/mL | <7^a** pg/mL | 53 ± 4 pg/mL | 48 ± 5 pg/mL | <7^a* pg/mL |  |  | 
Cc1[nH]c(=O)c(C#N)cc1-c1ccc2nccn2c1 [Orprinone, orprinone] | 67 ± 14 pg/mL | 44 ± 7 pg/mL | 40 ± 9 pg/mL | 107 ± 20 pg/mL | 88 ± 14 pg/mL | 32 ± 11 pg/mL | dose-dependently suppressed |  | 
CCCC(=O)Nc1ncnc2c1ncn2[C@@H]1O[C@@H]2COP(=O)(O)O[C@H]2[C@H]1OC(=O)CCC [dbcAMP, dibutyryl cAMP] |  |  |  | 122 ± 23 pg/mL | 59 ± 18 pg/mL | 23 ± 8 pg/mL | dose-dependently suppressed |  | 
C=C[C@@]1(C)CC(=O)[C@]2(O)[C@@]3(C)[C@@H](O)CCC(C)(C)[C@@H]3[C@H](O)[C@H](OC(C)=O)[C@@]2(C)O1 [forskoline, forskolin] | 47 ± 10 pg/mL | 34 ± 6 pg/mL | <7^a** pg/mL |  |  |  |  |  | 
CC(=O)CCCCn1c(=O)c2c(ncn2C)n(C)c1=O [pentoxifylline] |  |  |  |  |  |  |  | up-regulate | reduce
